# Values quoted from earlier work in patent US20120196889A1, “CATECHOLAMINE DERIVATIVES AND PRODRUGS THEREOF” (H. Lundbeck A/S, priority 2009, published 2012).
# Conditions: in man after oral dosing; high hepatic first-pass metabolism
structure (smiles),measurement,value
CCCc1cc2c(s1)CN[C@@H]1CCc3cc(OC(C)=O)c(OC(C)=O)cc3[C@@H]21 [Adrogolide],oral bioavailability,~4%
